These results are taken from publication PMC6952103, “Biochemical characterization of Ty1 retrotransposon protease” (PLoS ONE, 2020).

For one assay, the target named is T1, Ty1 PR-His6 (Saccharomyces cerevisiae, UniProt Q07793).
T1 construct: made in house; host or cells: E. coli BL21(DE3), pET11a Gag-PR-His6 (gift of J.F. Lawler); soluble fraction, Ni-chelate chromatography, autoprocessed
T1 sequence (Q07793 402-582 limits assumed): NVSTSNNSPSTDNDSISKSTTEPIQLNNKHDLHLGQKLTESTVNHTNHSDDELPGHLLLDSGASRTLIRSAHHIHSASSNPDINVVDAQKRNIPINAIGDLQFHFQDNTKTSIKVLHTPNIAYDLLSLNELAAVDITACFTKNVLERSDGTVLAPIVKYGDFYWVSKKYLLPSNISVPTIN
In words: Inhibition study of Ty1 PR-His6. The assay is classed as biochemical. Particulars: Ty1 PR-His6 (400–1600 nM), VPTIN*NVHTS 0.44 mM, inhibitor ≥100 nM final, DMSO, peptide buffer A, 2 h at 30°C. As to the method:
Ty1 PR-His6 activity was measured in the presence of various HIV-1 protease inhibitors. […] To study effect of inhibitors on proteolytic activity, reaction mixtures contained 5 μl purified Ty1 PR-His6 (400–1600 nM), 10 μl peptide buffer A, 4.8 μl oligopeptide substrate (VPTIN*NVHTS, 0.44 mM), and 0.2 μl inhibitor. For screening, inhibitors were dissolved in DMSO to have ≥100 nM final concentration. DMSO solution containing no inhibitor was used as control. Reaction mixtures were incubated for 2 h at 30°C.

In assay [1] the target is Copia transposon protease. The note with it: ref [17]; cited from earlier work. An excerpt: (§1) Despite the fact that out of the tested inhibitors only acet ...
The next assay relates to XMRV PR. Particulars: ref [29]; cited from earlier work.
Text: as §1

Entries after “also recorded” stand apart in the source; their conditions may differ.

For pepstatin A, on Ty1 PR-His6, the “inhibition of proteolytic activity (in words)” value is “no inhibitory potential; also recorded: unable for the inhibition”. Moreover, the inhibition constant Ki – broadly, a dissociation constant, usually derived from enzyme kinetics or from competition with a known ligand – in assay [1] was 15 nM. In addition, the “inhibition (in words)” value in the assay with XMRV PR is listed as “weak inhibitors”.
